Experimental data reported in US5594024A, “Centrally actig substituted phenylazacycloalkanes” (priority 1995, dated 1997).
Like-named read-outs stand apart in the source and are kept apart here.

Experiments:
D2 receptors = molecular target: T1, D2 receptors (Rattus norvegicus, UniProt P61169); experiment: D2 antagonist binding ([3H]-spiperone), rat striatum; settings: [3H]-spiperone, rat striatum; read-out: in vitro binding IC50, D2 -spip
T1 construct: Preparation of rat striatal membranes for (3H)-spiperone; from tissue; host or cells: rat striatum (striatal membranes)
Procedure: D2 antagonist binding. Preparation of rat striatal membranes for (3H)-spiperone (specific activity 21-24 Ci/mmol) binding was carried out in a similar manner as described for D1-binding, Hyttel et al., J. Neural. Transm., 68, 171 (1987).
IC50 values were calculated by semi-log plot and linear regression analysis.

5-HT1A = molecular target: T2, 5-HT1A (Rattus norvegicus, UniProt P19327); experiment: 5-HT1A radioligand binding ([3H]-8-OH-DPAT); set-up: species or system rat (male Sprague-Dawley); settings: [3H]-8-OH-DPAT, rat cortex; read-out: in vitro binding IC50, 5HT1A
T2 construct: the whole brain with the exception of the brainstem and cerebellum was rapidly removed; from tissue
T2 sequence (P19327 1-422): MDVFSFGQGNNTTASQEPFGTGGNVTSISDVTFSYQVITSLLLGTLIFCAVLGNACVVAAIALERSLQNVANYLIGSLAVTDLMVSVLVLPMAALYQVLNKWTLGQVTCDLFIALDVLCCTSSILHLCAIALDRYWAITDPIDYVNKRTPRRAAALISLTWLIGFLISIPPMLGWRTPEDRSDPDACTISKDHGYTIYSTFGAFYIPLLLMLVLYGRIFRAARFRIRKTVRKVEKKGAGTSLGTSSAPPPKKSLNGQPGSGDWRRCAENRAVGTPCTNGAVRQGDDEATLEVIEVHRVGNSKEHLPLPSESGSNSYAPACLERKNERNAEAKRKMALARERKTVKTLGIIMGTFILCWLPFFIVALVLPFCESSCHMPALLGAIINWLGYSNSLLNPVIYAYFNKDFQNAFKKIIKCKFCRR
Procedure: ^b Serotonin 5HT1A ([^3 H]-8OH-DPAT, agonist) rat cortex.
5-HT1A radioligand binding. Male Sprague-Dawley rats (160-225 g) were killed by decapitation and the whole brain with the exception of the brainstem and cerebellum was rapidly removed, weighed and chilled in ice-cold 0.9% NaCl. Each brain was homogenized (Ultra-Turrax, 20 s) in 10 mL ice-cold 50 mM Tris buffer (pH 8.0 at 25° C.) containing 120 mM NaCl, 4 mM CaCl2 and 4 mM MgCl2 and centrifuged at 20,000 g's at 4° C. for 10 minutes. Pellets were resuspended in 10 mL fresh buffer and preincubated for 10 minutes in a 37° C. waterbath and then recentrifuged. Final pellets were homogenized in 100 volumes (w/v) of Tris buffer (as described above) containing 10 μM pargyline. The incubation tubes were kept on ice in triplicates and received 100 μL drug solution in water (or water for total binding) and 1000 μL membrane suspension (corresponds to 10 mg original tissue). The binding experiment was initiated by addition of 100 μL of (3H)-8-OH-DPAT (specific activity 143-158 Ci/mmol) in ascorbic acid (the final incubation concentration was 1 nM (3H)-8-OH-DPAT in 0.1% ascorbic acid). After incubation for 15 minutes at 37° C. the reaction was terminated by separation of the free radioligand from bound by rapid vacuum filtration using a cell harvester equipment (O. M. Teknik, Denmark). The tubes were rinsed with 4 mL and the filters (Whatman GF/F 25 mm) were washed twice with 4 mL ice-cold 0.9% NaCl.
The radioactivity of the filters was measured in a liquid scintillation counter (efficiency 41%) in 5 mL Picofluor®. Specific binding (70-75% of total binding) was defined as the radioactivity displaced by 10 μM 5-HT. IC50 values were calculated by semi-log plot and linear regression analysis.

DA receptor [1] = experiment: DA metabolism (DOPAC, HVA levels) in habituated rats; assay type: in vivo, rat (male Sprague-Dawley); settings: Rattus norvegicus, 1 h; for response vs control in vivo at 6.2 µmol/kg: 6.2 μmol/kg sc; for response vs control in vivo at 25 µmol/kg: 25 μmol/kg sc
Procedure: (§1) Footnotes Table 3. The rats were habituated to the motility meters 60 min
The rats were immediately killed after the activity session, striata
(§2) and limbic levels of DOPAC and 5HIAA were measured by means of HPLCEC. *p
(§3) In the experiments with habituated rats no NSD was administered and the animals were killed one hour after drug administration. […] The levels were expressed as % of controls (DOPAC and 5-HIAA see Table 3). The in vivo brain microdialysis experiments were performed in conscious rats as described by Waters et al., Eur. J. Pharm., 187, 425-34 (1990).
(§4) Injection volumes were 5 mL/kg.
After the activity session the rats were killed and the brain levels of HVA and DOPAC were measured (data are expressed as means ±SEM).

5-HT receptor [2] = experiment: 5-HT metabolism (5-HIAA levels) in habituated rats; assay type: in vivo, rat (male Sprague-Dawley)
Procedure: as §1
SEM. The rats were immediately killed after the activity session, striata
as §2, §3
Injection volumes were 5 mL/kg. […]

habituated rats = experiment: Locomotor activity and behavior in habituated rats; assay type: in vivo, rat (male Sprague-Dawley); settings: habituated rats
Procedure: as §1
prior to the activity session.
as §4
Locomotor activity was measured in rats which were habituated 60 minutes to the activity meters before drug injection. The activity was measured for the subsequent 60 minutes and expressed as % of controls (means ±SEM, n=4).

5-HT receptor [3] = experiment: 5-HTP accumulation (5-HT synthesis rate) in non-pretreated rats after NSD 1015; assay type: in vivo, rat (male Sprague-Dawley); settings: 100 sc
Procedure: observations are commented to the right. After the session the rats were
accumulation in the NErich cortical regions and 5HTP in the limbic
as §4

DA receptor [4] = experiment: DOPA accumulation (DA synthesis rate) in non-pretreated rats after NSD 1015; settings: 100 sc
Procedure: injected with NSD 1015 (100 mg/kg, i.p.) and then killed 30 min later.
In-vivo determination of rat brain monoamine metabolites and tyrosine and tryptophan hydroxylation (biochemically monitored DA and 5-HT receptor agonist or antagonist activity).
The compounds under evaluation were tested biochemically for central DA and 5-HT receptor (pre- and/or postsynaptic) stimulating and/or blocking activity. The concept of this biochemical screening method is that a DA or 5-HT receptor agonist will stimulate the receptor and through regulatory negative feed-back systems induce a decline in tyrosine or tryptophan hydroxylating activity, respectively, and a subsequent reduction in the synthesis rate of DA and 5-HT in the presynaptic neuron. […] The biochemical experiments and the determinations of Dopa and 5-HTP by means of HPLC with electrochemical detection were performed. The antagonistic effects were seen as increases in the synthesis rate (n=4), as a result of the positive feed-back upregulation of synthesis. The effects on Dopa and 5-HTP accumulation are expressed as % of controls, which were: DOPA limbic system=447±23 ng/g and DOPA striatum=1045±47ng/g, 5-HTP limbic region 241±2 ng/g (Table 2).
(§5) Animals used in the biochemical and motor activity experiments were male rats of the Sprague-Dawley strain (ALAB, Sollentuna, Sweden), weighing 200-300 g. The rats were kept 5 per cage with free access to water and food (except for the starved animals for the experiments with per oral administration, who were only allowed water the last 18 hours before testing), at least one week from arrival until used in the experiments.
(§6) All substances to be tested were dissolved in saline immediately before use, occasionally with the addition of a few drops of glacial acetic acid and/or moderate heating in order to obtain complete dissolution. Injection volumes were 5 mL/kg.
Analysis of variance (ANOVA) followed by Fischer's test was used for the statistical calculations. P values less than 0.05 were regarded statistically significant.
DOPA accumulation (DA synthesis rate) in non-pretreated rats (Table 2). After the locomotor activity session (see Table 2, above) the rats were injected with the decarboxylase inhibitor NSD 1015 (100 mg/kg, sc) and killed 30 minutes later. The DOPA accumulation in the DA -rich limbic and striatal and the NE-rich cortical (mainly hemispheres) brain areas were expressed as % of saline treated controls.
DOPA accumulation, time course after s.c. and p.o. administration (Table 2). […] NSD 1015 (100 mg/kg, sc) was injected 30 minutes before death. The data are expressed as % of saline treated controls.

non-pretreated rats = experiment: Locomotor activity and gross behavior in non-habituated (non-pretreated) rats; settings: 100 sc, non-pretreated rats; for Motor Act.: 30 min
From the text: Immediately after drug administration, the rats were placed in the test cages (one rat/cage) and put into the motility meters. […] Observations of gross behavior were made throughout the activity sessions through semi-transparent mirrors.
as §5, §6
Analysis of variance (ANOVA) followed by Fischer's test was used for the statistical calculations.
In vivo behavioral data was obtained with rats injected with drug and 5 minutes later put into the motility chambers for the first time. The motor activity was measured for the subsequent 30 minutes (accumulated counts/30 minutes) and expressed as % of saline treated controls.

[5] = system: S-(-)-34-induced hypermotility; experiment: Blockade of S-(-)-34-induced hypermotility in habituated rats; assay type: in vivo, rat; settings: for effect on S-(-)-34-induced hypermotility: habituated rats, S-(-)-34 50 μmol/kg s.c.
Procedure: It was shown that S-(-)-34-induced hypermotility in habituated rats is blocked by haloperidol, raclopride, reserpine and alpha-methyl-para tyrosine. […] The test compounds were administered consecutively at the same time.
The catecholamine synthesis inhibitor alpha-methyl-para-tyrosine (Sigma, alpha-MT;100 mg/kg, i.p.) was administered 60 minutes before […] ([…], s.c.).

[6] = system: d-amphetamine-induced hyperactivity; experiment: d-Amphetamine-induced hyperactivity in habituated rats; assay type: in vivo, rat; settings: d-amphetamine 5.0 mg/kg, sc
[7] = 100 μmol/kg sc, habituated rats, read-out: DOPAC limbic
[8] = 100 μmol/kg sc, habituated rats, read-out: DOPAC striatum
[9] = Rattus norvegicus, 1 h, 100 μmol/kg sc, 60 min, read-out: Motor Activity
[10] = habituated rats, read-out: DOPAC limbic
[11] = habituated rats, read-out: DOPAC striatum

T1 sequence (P61169 whole entry): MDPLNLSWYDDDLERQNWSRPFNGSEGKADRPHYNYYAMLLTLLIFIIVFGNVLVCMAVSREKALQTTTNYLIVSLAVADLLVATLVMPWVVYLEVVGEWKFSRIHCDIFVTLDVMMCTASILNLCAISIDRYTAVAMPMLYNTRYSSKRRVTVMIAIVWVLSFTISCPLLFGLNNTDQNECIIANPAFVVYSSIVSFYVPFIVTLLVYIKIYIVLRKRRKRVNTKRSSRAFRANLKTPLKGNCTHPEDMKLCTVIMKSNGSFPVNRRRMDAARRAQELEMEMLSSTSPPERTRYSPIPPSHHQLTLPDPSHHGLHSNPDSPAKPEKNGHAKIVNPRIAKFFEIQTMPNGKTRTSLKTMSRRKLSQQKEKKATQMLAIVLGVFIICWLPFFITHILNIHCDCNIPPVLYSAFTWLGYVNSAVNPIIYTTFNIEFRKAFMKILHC

Compound | IC50 (D2 receptors) [µM] | IC50 (5-HT1A) [µM] | response vs control in vivo at 100 µmol/kg (DA receptor [1]; [7]) [%] | response vs control in vivo at 100 µmol/kg (DA receptor [1]; [8]) [%] | 5-HIAA limbic (5-HT receptor [2]; 100 μmol/kg sc) | Behavioral observations (habituated rats; 100 μmol/kg sc) | response vs control in vivo at 100 µmol/kg (habituated rats; [9]) [%] | effect on S-(-)-34-induced hypermotility [5] | also measured
C=CCN1CCC[C@@H](c2cccc(OS(=O)(=O)C(F)(F)F)c2)C1 [Compound S-17, S-3-((3-(Trifluoromethyl)sulfonyl)oxyphenyl-N-allyl)piperidine] | 28 | 4.2 | 159 ± 18 | 222 ± 12 | 93 ± 6 % of saline treated controls | Activation | 195 ± 13 | – | –
CCCN1CCC[C@@H](c2cccc(OS(C)(=O)=O)c2)C1 [Compound S-22, S-3-((3-Methylsulfonyl)oxyphenyl-N-n-propyl)piperidine] | 25 | 1.7 | 209 ± 11 | 276 ± 12 | 118 ± 11 % of saline treated controls | Activation | 550 ± 50 | – | –
C=Cc1cccc([C@@H]2CCCN(CCC)C2)c1 [Compound S-41, S-3-(3-Vinylphenyl-N-n-propyl)piperidine] | 3.5 | 0.46 | – | – | 92 ± 14 % of saline treated controls | Activation | 529 ± 204 | – | response vs control in vivo at 100 µmol/kg (DA receptor [1]; sc, read-out: DOPAC limbic): 136 ± 15%; response vs control in vivo at 100 µmol/kg (DA receptor [1]; sc, read-out: DOPAC striatum): 134 ± 13%
CN1CCC[C@@H](c2cccc(OS(=O)(=O)C(F)(F)F)c2)C1 [S-(+)-13, S-(+)-3-((3-(Trifluoromethyl)sulfonyl)oxyphenyl-N-methyl)-piperidine] | 71 | 2.8 | 138 ± 10 | 172 ± 11 | 109 ± 2 % of saline treated controls | No change | 135 ± 14 | – | –
CCN1CCC[C@@H](c2cccc(OS(=O)(=O)C(F)(F)F)c2)C1 [S-(-)-14, S-(-)-3-((3-(Trifluoromethyl)sulfonyl)oxyphenyl-N-ethyl)-piperidine] | 7.1 | 1.3 | 223 ± 39 | 293 ± 29 | 98 ± 33 % of saline treated controls | Activation | 404 ± 205 | – | 5-HTP acc Limbic Region (5-HT receptor [3]): 76 ± 9 % of saline controls; DOPA acc Cortex (DA receptor [4]): 80 ± 4 % of saline controls; DOPA acc Stratium (DA receptor [4]): 286 ± 33 % of saline controls; Gross Behavioral Observations (non-pretreated rats): No change; Motor Act. (non-pretreated rats): 103 ± 19 % of saline controls
CCCN1CCC[C@@H](c2cccc(OS(=O)(=O)C(F)(F)F)c2)C1 [S-(-)-15, S-(-)-3-((3-(Trifluoromethyl)sulfonyl)oxyphenyl-N-n-propyl)-piperidine] | 1.6 | 2.3 | 196 ± 16 | 217 ± 3 | 140 ± 11 % of saline treated controls | Activation | 445 ± 131 | – | response vs control in vivo at 6.2 µmol/kg (DA receptor [1]; [10]): 134 ± 10%; response vs control in vivo at 6.2 µmol/kg (DA receptor [1]; [11]): 118 ± 10%; response vs control in vivo at 25 µmol/kg (DA receptor [1]; [10]): 145 ± 11%; response vs control in vivo at 25 µmol/kg (DA receptor [1]; [11]): 175 ± 8%; 5-HIAA limbic (5-HT receptor [2]; 6.2 μmol/kg sc): 139 ± 9 % of saline treated controls; 5-HIAA limbic (5-HT receptor [2]; 25 μmol/kg sc): 126 ± 5 % of saline treated controls; Behavioral observations (habituated rats; 6.2 μmol/kg sc): No change; Motor Activity (habituated rats; 6.2 μmol/kg sc, 60 min): 91 ± 94 % of saline treated controls; Behavioral observations (habituated rats; 25 μmol/kg sc): No change; response vs control in vivo at 25 µmol/kg (habituated rats; Rattus norvegicus, 1 h, 25 μmol/kg sc, 60 min, read-out: Motor Activity): 128 ± 33%
CCCCN1CCC[C@@H](c2cccc(OS(=O)(=O)C(F)(F)F)c2)C1 [S-(-)-16, S-(-)-3-((3-(Trifluoromethyl)sulfonyl)oxyphenyl-N-n-butyl)-piperidine] | 1.3 | 1.3 | 186 ± 2 | 192 ± 4 | 109 ± 4 % of saline treated controls | Activation | 345 ± 39 | – | 5-HTP acc Limbic Region (5-HT receptor [3]): 82 ± 5 % of saline controls; DOPA acc Cortex (DA receptor [4]): 89 ± 9 % of saline controls; DOPA acc Stratium (DA receptor [4]): 234 ± 10 % of saline controls; Gross Behavioral Observations (non-pretreated rats): No change; Motor Act. (non-pretreated rats): 116 ± 21 % of saline controls
CC(N)(Cc1ccc(O)cc1)C(=O)O (stereo not drawn) [alpha-MT, alpha-methyl-para-tyrosine] | – | – | – | – | – | – | – | blocked | motor activity, compound alone ([5]; 100 mg/kg, i.p.): did not affect the motor activity; effect on locomotor stimulation produced by S-(-)-34 ([5]; alpha-MT 100 mg/kg, i.p., 60 minutes before): partially inhibited the locomotor stimulation
C[C@H](N)Cc1ccccc1 [d-amphetamine, reference compound] | – | – | – | – | – | – | – | – | activity of habituated rats, d-amphetamine alone [6]: 871±68 % of NaCl controls
O=C(CCCN1CCC(O)(c2ccc(Cl)cc2)CC1)c1ccc(F)cc1 [haloperidol] | – | – | – | – | – | – | – | blocked | –
CCN1CCC[C@H]1CNC(=O)c1c(O)c(Cl)cc(Cl)c1OC [raclopride] | – | – | – | – | – | – | – | blocked | –
COC(=O)[C@H]1[C@H]2C[C@@H]3c4[nH]c5cc(OC)ccc5c4CCN3C[C@H]2C[C@@H](OC(=O)c2cc(OC)c(OC)c(OC)c2)[C@@H]1OC [reserpine] | – | – | – | – | – | – | – | blocked | effect on locomotor stimulation produced by S-(-)-34 ([5]; reserpine 5 mg/kg, 18 h before, S-(-)-34 50 μmol/kg, sc): completely prevented the locomotor stimulation
